One compound from publication PMC6704710, “Preclinical evaluation of 3D185, a novel potent inhibitor of FGFR1/2/3 and CSF-1R, in FGFR-dependent and macrophage-dominant cancer models” (Journal of Experimental & Clinical Cancer Research : CR, 2019) can be followed below.

What all share (test): Eurofins kinase panel
Holding throughout (format): biochemical
Common to all, as to conditions: read-out: Inhibition rate (%)

For one assay, the target named is T1, TAK1(h) (Homo sapiens, UniProt O43318).
T1 construct: purchased Eurofins (KinaseProfiler)
T1 sequence (O43318 1-303 limits assumed): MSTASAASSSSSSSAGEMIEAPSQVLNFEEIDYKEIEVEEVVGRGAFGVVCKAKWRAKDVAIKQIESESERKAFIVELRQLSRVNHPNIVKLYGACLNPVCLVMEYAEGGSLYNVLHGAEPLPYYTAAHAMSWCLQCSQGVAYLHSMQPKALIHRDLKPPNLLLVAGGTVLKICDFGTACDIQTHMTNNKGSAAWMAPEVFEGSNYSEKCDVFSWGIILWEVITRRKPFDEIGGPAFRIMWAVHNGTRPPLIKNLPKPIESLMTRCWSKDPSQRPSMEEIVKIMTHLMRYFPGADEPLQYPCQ

Another assay deals with T2, TTK(h) (Homo sapiens, UniProt P33981).
T2 construct: purchased Eurofins (KinaseProfiler)
T2 sequence (P33981 1-857): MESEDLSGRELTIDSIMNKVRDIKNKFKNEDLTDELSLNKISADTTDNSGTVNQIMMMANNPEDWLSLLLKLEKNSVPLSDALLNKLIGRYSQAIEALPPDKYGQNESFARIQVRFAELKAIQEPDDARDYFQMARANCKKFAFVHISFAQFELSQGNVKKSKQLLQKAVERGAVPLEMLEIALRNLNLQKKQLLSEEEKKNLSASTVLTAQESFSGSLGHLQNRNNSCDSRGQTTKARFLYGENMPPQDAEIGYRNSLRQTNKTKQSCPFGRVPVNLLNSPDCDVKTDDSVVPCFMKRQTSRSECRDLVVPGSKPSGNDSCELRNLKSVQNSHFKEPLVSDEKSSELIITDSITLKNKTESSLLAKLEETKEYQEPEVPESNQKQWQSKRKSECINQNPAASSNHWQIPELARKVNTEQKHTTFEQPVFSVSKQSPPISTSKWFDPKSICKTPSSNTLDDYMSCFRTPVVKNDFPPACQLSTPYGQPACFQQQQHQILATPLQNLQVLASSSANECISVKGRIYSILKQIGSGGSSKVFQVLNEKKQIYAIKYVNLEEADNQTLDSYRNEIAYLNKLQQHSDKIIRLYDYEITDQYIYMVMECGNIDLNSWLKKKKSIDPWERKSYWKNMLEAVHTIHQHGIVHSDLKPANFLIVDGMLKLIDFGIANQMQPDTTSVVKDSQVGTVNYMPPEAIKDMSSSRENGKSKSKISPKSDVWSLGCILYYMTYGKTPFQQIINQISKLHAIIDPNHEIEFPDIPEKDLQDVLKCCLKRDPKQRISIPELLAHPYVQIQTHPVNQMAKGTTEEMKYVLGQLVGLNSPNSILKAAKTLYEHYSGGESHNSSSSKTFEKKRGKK

A further assay concerns the target T3, Tec(h) activated (Homo sapiens, UniProt P42680).
T3 construct: purchased Eurofins (KinaseProfiler)
T3 sequence (P42680 1-631): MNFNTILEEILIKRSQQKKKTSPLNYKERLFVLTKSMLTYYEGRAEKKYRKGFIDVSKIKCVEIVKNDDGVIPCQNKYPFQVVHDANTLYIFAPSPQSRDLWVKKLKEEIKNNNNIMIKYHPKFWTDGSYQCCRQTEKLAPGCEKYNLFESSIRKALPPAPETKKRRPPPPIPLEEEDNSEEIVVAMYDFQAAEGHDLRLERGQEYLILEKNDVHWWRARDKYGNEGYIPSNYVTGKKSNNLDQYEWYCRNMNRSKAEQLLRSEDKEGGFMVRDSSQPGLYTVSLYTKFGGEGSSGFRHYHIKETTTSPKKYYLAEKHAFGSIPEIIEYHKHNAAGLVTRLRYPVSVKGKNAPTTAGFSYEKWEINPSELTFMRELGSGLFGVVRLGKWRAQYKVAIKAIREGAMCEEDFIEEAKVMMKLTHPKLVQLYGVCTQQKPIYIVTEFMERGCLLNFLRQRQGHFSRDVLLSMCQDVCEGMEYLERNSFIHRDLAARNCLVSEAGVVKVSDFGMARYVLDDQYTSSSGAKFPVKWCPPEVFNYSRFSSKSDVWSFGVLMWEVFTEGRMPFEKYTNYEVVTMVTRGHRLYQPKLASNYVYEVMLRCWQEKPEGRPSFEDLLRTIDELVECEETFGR

Another assay deals with T4, MEKK2(h) (Homo sapiens, UniProt Q9Y2U5).
T4 construct: purchased Eurofins (KinaseProfiler)
T4 sequence (Q9Y2U5 1-619): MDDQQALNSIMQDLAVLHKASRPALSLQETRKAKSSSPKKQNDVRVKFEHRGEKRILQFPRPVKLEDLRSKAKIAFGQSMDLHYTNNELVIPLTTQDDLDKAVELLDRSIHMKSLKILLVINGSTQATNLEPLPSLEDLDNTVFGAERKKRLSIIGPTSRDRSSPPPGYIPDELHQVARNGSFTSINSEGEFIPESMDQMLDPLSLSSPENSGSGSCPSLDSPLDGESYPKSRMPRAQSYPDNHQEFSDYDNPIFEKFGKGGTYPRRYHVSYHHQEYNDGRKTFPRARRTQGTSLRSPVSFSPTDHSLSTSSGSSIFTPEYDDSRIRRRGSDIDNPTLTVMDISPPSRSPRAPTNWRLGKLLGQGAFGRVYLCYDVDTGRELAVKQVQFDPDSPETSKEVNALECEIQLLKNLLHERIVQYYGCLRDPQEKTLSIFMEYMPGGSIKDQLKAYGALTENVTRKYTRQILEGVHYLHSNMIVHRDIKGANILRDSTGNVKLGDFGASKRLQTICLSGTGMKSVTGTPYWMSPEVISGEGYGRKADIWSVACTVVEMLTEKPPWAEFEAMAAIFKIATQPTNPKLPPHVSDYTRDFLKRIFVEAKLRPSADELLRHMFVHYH

The next assay addresses T5, CK1γ1(h) (Homo sapiens, UniProt Q9HCP0).
T5 construct: purchased Eurofins (KinaseProfiler)

Another assay addresses T6, CaMKK1(h) (Homo sapiens, UniProt Q8N5S9).
T6 construct: purchased Eurofins (KinaseProfiler)

A word on the inhibition: it is the drop in the measured response relative to a control, in per cent.

T5 sequence (Q9HCP0 whole entry): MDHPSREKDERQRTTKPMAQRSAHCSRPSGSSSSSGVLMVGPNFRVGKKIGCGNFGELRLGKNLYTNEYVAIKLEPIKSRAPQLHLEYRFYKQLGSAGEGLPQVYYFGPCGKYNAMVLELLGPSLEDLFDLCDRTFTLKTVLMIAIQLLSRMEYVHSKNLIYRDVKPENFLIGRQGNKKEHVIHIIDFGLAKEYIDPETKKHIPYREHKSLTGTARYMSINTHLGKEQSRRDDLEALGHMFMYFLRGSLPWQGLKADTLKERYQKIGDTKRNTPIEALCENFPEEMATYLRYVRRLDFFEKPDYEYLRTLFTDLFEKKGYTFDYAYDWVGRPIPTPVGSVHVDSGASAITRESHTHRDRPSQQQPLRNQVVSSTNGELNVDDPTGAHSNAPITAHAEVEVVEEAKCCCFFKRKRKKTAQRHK
T6 sequence (Q8N5S9 whole entry): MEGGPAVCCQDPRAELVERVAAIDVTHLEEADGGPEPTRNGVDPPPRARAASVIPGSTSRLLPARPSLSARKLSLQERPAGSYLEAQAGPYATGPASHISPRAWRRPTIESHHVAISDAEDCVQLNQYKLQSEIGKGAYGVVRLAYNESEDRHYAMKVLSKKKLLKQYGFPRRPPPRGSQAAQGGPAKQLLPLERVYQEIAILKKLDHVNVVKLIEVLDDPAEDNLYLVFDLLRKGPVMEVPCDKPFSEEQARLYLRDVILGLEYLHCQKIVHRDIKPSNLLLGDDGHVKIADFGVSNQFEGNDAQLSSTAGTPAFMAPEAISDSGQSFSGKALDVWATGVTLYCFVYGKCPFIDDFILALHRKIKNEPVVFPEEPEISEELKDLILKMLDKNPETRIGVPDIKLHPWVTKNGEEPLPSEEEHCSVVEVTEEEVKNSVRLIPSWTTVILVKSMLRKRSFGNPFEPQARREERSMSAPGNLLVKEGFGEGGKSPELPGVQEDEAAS

In the case of `COc1cc(OC)c(Cl)c(-c2ccc3c(NC(=O)c4ccc(N5CCNC(C)(C)C5)cc4)n[nH]c3n2)c1Cl` [3D185], the inhibition at 0.01 µM was -6% on TAK1(h) (10 nM); 5% at TTK(h) (10 nM); 3% on Tec(h) activated (10 nM); 34% at MEKK2(h) (10 nM); 9% at CK1γ1(h) (10 nM); -1% on CaMKK1(h) (10 nM). The inhibition at 0.1 µM on TAK1(h) (100 nM) is 11%; at TTK(h) (100 nM), -2%; at Tec(h) activated (100 nM) it was 9%; at MEKK2(h) (100 nM) it was 85%; on CK1γ1(h) (100 nM), -4%; on CaMKK1(h) (100 nM) it was 5%. Also, the inhibition at 1 µM at TAK1(h) (1000 nM) was found to be 13%; on TTK(h) (1000 nM), 12%; on Tec(h) activated (1000 nM) it was 23%; on MEKK2(h) (1000 nM) it was 97%; at CK1γ1(h) (1000 nM), 2%; on CaMKK1(h) (1000 nM) it was 35%.
